Results: patent publication US10358434B2, “2-(3-pyridinyl)-1H-benzimidazole derivative compound and medicament containing same” (NIHON MEDI-PHYSICS CO., LTD., priority 2014, dated 2019)

Experiments:
[1] = test system: human adrenal gland section expressing aldosterone-producing adenoma; test: In vitro autoradiography using human adrenal adenoma; format: binding; settings: section of FIG. 17(b)
Outline: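 Autoradiography readout: PSL in equal-sized ROIs over adenoma (B2) and normal adrenal cortex (B1), expressed as B2/B1 and decay-corrected using half-life, applied activity and plate contact time. Tissue was surgically excised human adrenal, frozen and cut at 7 μm, incubated 10 min with 5-33 kBq/mL tracer in BSA-containing PBS, then imaged after 16-20 h exposure.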

[2] = Plasma stability evaluation (TLC analysis); format: in vitro ADME; settings: 37° C., 60 minutes, TLC analysis
Outline: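 TLC analysis, using each compound's synthesis conditions, judged stability after methanol was added and samples were centrifuged to remove protein. Beforehand, each tracer had spent 60 minutes at 37° C in pooled heparinized normal human plasma.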

[3] = In vivo kinetics experiment (radioactivity distribution); parameters: species or system Wistar male rat; settings: rat i.v., mean ± SD
Outline: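 Tissue radioactivity (% ID/g) and adrenal-to-blood, liver, kidney, small intestine, muscle and fat ratios determined at 10, 30 and 60 min post-dose. Tracers (approximately 1 to 3.7 MBq, saline with 1 w/v % ascorbic acid) injected i.v. into caudal vein of anesthetized 9-week male Wistar rats; organs excised, weighed, counted.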

SMILES: FCCn1c(-c2cncc(Cn3cncc3[123I])c2)nc2cc(F)c(Cl)cc21 [[^123I] 610, 6-Chloro-5-fluoro-1-(2-fluoroethyl)-2-{5-(5-[^123I]iodo-1H-imidazol-1-ylmethyl)pyridin-3-yl}benzimidazole]
- B2/B1 accumulation ratio [1]: 0.95
- B2 (PSL value, aldosterone-producing adenoma) ([1]; site 71b): 2786
- B1 (PSL value, normal adrenal cortex) ([1]; site 72b): 2931
- Radiochemical purity after incubation in human plasma [2]: 92%
- Adrenal gland/blood ratio of radioactivity accumulation ([3]; 10 min after administration): 27.61 ± 6.22
- Adrenal gland/fat ratio of radioactivity accumulation ([3]; 10 min after administration): 100.35 ± 29.67
- Adrenal gland/kidney ratio of radioactivity accumulation ([3]; 10 min after administration): 14.48 ± 2.49
- Adrenal gland/liver ratio of radioactivity accumulation ([3]; 10 min after administration): 3.68 ± 0.80
- Adrenal gland/muscle ratio of radioactivity accumulation ([3]; 10 min after administration): 62.69 ± 29.38
- Adrenal gland/small intestine ratio of radioactivity accumulation ([3]; 10 min after administration): 18.10 ± 4.67
- Radioactivity distribution Adrenal gland ([3]; 10 min after administration): 12.62 ± 2.99 % ID/g
- Radioactivity distribution Bladder (including urine) ([3]; 10 min after administration): 0.22 ± 0.08 % ID/g
- Radioactivity distribution Blood ([3]; 10 min after administration): 0.46 ± 0.03 % ID/g
- Radioactivity distribution Fat ([3]; 10 min after administration): 0.13 ± 0.02 % ID/g
- Radioactivity distribution Femur ([3]; 10 min after administration): 3.25 ± 0.85 % ID/g
- Radioactivity distribution Heart ([3]; 10 min after administration): 0.33 ± 0.02 % ID/g
- Radioactivity distribution Kidney ([3]; 10 min after administration): 0.86 ± 0.06 % ID/g
- Radioactivity distribution Large intestine ([3]; 10 min after administration): 0.13 ± 0.02 % ID/g
- Radioactivity distribution Liver ([3]; 10 min after administration): 3.43 ± 0.26 % ID/g
- Radioactivity distribution Lung ([3]; 10 min after administration): 0.49 ± 0.03 % ID/g
- Radioactivity distribution Muscle (lower limbs) ([3]; 10 min after administration): 0.21 ± 0.05 % ID/g
- Radioactivity distribution Remaining whole body ([3]; 10 min after administration): 0.30 ± 0.04 % ID/g
- Radioactivity distribution Small intestine ([3]; 10 min after administration): 0.71 ± 0.10 % ID/g
- Radioactivity distribution Spleen ([3]; 10 min after administration): 1.43 ± 0.11 % ID/g
- Radioactivity distribution Stomach ([3]; 10 min after administration): 0.66 ± 0.21 % ID/g
- Radioactivity distribution Testis ([3]; 10 min after administration): 0.13 ± 0.02 % ID/g
- Radioactivity distribution Whole brain ([3]; 10 min after administration): 0.04 ± 0.00 % ID/g
- Adrenal gland/blood ratio of radioactivity accumulation ([3]; 30 min after administration): 23.78 ± 2.07
- Adrenal gland/fat ratio of radioactivity accumulation ([3]; 30 min after administration): 88.69 ± 3.10
- Adrenal gland/kidney ratio of radioactivity accumulation ([3]; 30 min after administration): 28.65 ± 3.77
- Adrenal gland/liver ratio of radioactivity accumulation ([3]; 30 min after administration): 6.43 ± 0.94
- Adrenal gland/muscle ratio of radioactivity accumulation ([3]; 30 min after administration): 94.79 ± 8.71
- Adrenal gland/small intestine ratio of radioactivity accumulation ([3]; 30 min after administration): 16.12 ± 2.61
- Radioactivity distribution Adrenal gland ([3]; 30 min after administration): 15.71 ± 1.59 % ID/g
- Radioactivity distribution Bladder (including urine) ([3]; 30 min after administration): 0.28 ± 0.08 % ID/g
- Radioactivity distribution Blood ([3]; 30 min after administration): 0.66 ± 0.04 % ID/g
- Radioactivity distribution Fat ([3]; 30 min after administration): 0.18 ± 0.01 % ID/g
- Radioactivity distribution Femur ([3]; 30 min after administration): 19.34 ± 6.00 % ID/g
- Radioactivity distribution Heart ([3]; 30 min after administration): 0.31 ± 0.02 % ID/g
- Radioactivity distribution Kidney ([3]; 30 min after administration): 0.55 ± 0.02 % ID/g
- Radioactivity distribution Large intestine ([3]; 30 min after administration): 0.16 ± 0.03 % ID/g
- Radioactivity distribution Liver ([3]; 30 min after administration): 2.46 ± 0.18 % ID/g
- Radioactivity distribution Lung ([3]; 30 min after administration): 0.53 ± 0.02 % ID/g
- Radioactivity distribution Muscle (lower limbs) ([3]; 30 min after administration): 0.17 ± 0.02 % ID/g
- Radioactivity distribution Remaining whole body ([3]; 30 min after administration): 0.31 ± 0.02 % ID/g
- Radioactivity distribution Small intestine ([3]; 30 min after administration): 0.98 ± 0.06 % ID/g
- Radioactivity distribution Spleen ([3]; 30 min after administration): 1.00 ± 0.04 % ID/g
- Radioactivity distribution Stomach ([3]; 30 min after administration): 1.27 ± 0.33 % ID/g
- Radioactivity distribution Testis ([3]; 30 min after administration): 0.25 ± 0.02 % ID/g
- Radioactivity distribution Whole brain ([3]; 30 min after administration): 0.04 ± 0.00 % ID/g
- Adrenal gland/blood ratio of radioactivity accumulation ([3]; 60 min after administration): 27.80 ± 8.18
- Adrenal gland/fat ratio of radioactivity accumulation ([3]; 60 min after administration): 120.42 ± 43.06
- Adrenal gland/kidney ratio of radioactivity accumulation ([3]; 60 min after administration): 40.68 ± 13.23
- Adrenal gland/liver ratio of radioactivity accumulation ([3]; 60 min after administration): 20.57 ± 8.91
- Adrenal gland/muscle ratio of radioactivity accumulation ([3]; 60 min after administration): 147.93 ± 55.03
- Adrenal gland/small intestine ratio of radioactivity accumulation ([3]; 60 min after administration): 15.84 ± 3.51
- Radioactivity distribution Adrenal gland ([3]; 60 min after administration): 19.09 ± 6.65 % ID/g
- Radioactivity distribution Bladder (including urine) ([3]; 60 min after administration): 0.29 ± 0.08 % ID/g
- Radioactivity distribution Blood ([3]; 60 min after administration): 0.68 ± 0.05 % ID/g
- Radioactivity distribution Fat ([3]; 60 min after administration): 0.16 ± 0.03 % ID/g
- Radioactivity distribution Femur ([3]; 60 min after administration): 44.38 ± 12.58 % ID/g
- Radioactivity distribution Heart ([3]; 60 min after administration): 0.28 ± 0.04 % ID/g
- Radioactivity distribution Kidney ([3]; 60 min after administration): 0.47 ± 0.02 % ID/g
- Radioactivity distribution Large intestine ([3]; 60 min after administration): 0.19 ± 0.02 % ID/g
- Radioactivity distribution Liver ([3]; 60 min after administration): 0.95 ± 0.10 % ID/g
- Radioactivity distribution Lung ([3]; 60 min after administration): 0.50 ± 0.03 % ID/g
- Radioactivity distribution Muscle (lower limbs) ([3]; 60 min after administration): 0.13 ± 0.01 % ID/g
- Radioactivity distribution Remaining whole body ([3]; 60 min after administration): 0.31 ± 0.02 % ID/g
- Radioactivity distribution Small intestine ([3]; 60 min after administration): 1.18 ± 0.18 % ID/g
- Radioactivity distribution Spleen ([3]; 60 min after administration): 0.78 ± 0.25 % ID/g
- Radioactivity distribution Stomach ([3]; 60 min after administration): 2.97 ± 0.54 % ID/g
- Radioactivity distribution Testis ([3]; 60 min after administration): 0.32 ± 0.05 % ID/g
- Radioactivity distribution Whole brain ([3]; 60 min after administration): 0.03 ± 0.00 % ID/g
